This passage reports Ki and melting point results from patent publication US20040063643A1, “Bombesin antagonists” (Pfizer Inc., priority 2002, published 2004).

The term Ki denotes the dissociation constant of the complex between target and ligand, obtained from inhibition or displacement. For orientation: melting point means the temperature, or range, at which the solid turns liquid.

Molecules are shown by their SMILES.

The target of series [1] is BB2 (Homo sapiens, UniProt P30550). Put plainly: Bombesin BB2 receptor binding assay. The method, then:
Drug dilutions are performed using the Tecan Genesis/Miniprep handling stations. Assays are set up as follows
25 μl test compound/total/NSB
200 μl cell memb preparation
Assay additions using deep well Multidrop.
Non-specific binding is defined by 1 μM Bombesin 1% DMSO (final concentration).
1. Add membranes to start incubation. Vortex and incubate at 21° C. GRP assay=90 min; NMB assay=60 min.
2. Terminate reactions by rapid filtration onto GF\C filters or GF\C Unifilter plates presoaked in 0.2% PEI for >1 hour) using the appropriate Brandel cell harvester.
3. Wash with ice-cold HEPES HCl (50 mM, pH 7.4 at 21° C.).
Filter mats 6×1 ml total wash volume
Unifilter plates 2×1 ml total wash volume
4. Unifilters are dried at 50° C. for 60 minutes. Add 50 μl Microscint-0, Seal plates with Top-Seal A and count using TopCount NXT.
(§1) For each assay plate, total (1% DMSO) and non-specific (1 μM, 1% DMSO), binding will be measured for the ligand on the receptor. Specific binding of the radioactive ligand to the receptor can thus be calculated to which specific binding of the radioactive ligand in the presence of a competing compound can be calculated and expressed as percentage inhibition of radioactive ligand binding.

Series [2] has as its target T1, human bombesin BB1 receptors (Homo sapiens, UniProt P28336).
T1 construct: expressed in transfected cells; host or cells: CHO cells
Kind of series: Bombesin BB1 receptor binding assay, [125I][6-14]Bombesin, CHO cell membranes. The following applies: membranes from CHO cells expressing human BB1. How it is done:
The compounds of the present invention are a potent class of bombesin antagonists. Bombesin antagonism may be measured using the following binding assay using membranes from CHO cells expressing the human bombesin BB1 receptors.
Cells are maintained in Ham's F12 medium (Life Technologies Ltd, Cat No. 31765-027) supplemented with 10% FBS (Life Tech. Ltd., 10109-155) and 2 mM glutamine (or Glutamax in media). Cells are routinely passaged once weekly (split 1:5, approximate seeding density=1-4 million per […] flask), and fed every 2 days with fresh medium. Cells are frozen down (in Hams F12 containing 5% DMSO) 4-7 days after passaging and stored at −70° C. until required for use in binding experiments.
Frozen cells rapidly thawed and diluted with excess medium (each aliquot made up to 40 ml).
Cells harvested by centrifuging at 3000 g for 4 min at 21° C.
Cells resuspended in known volume of assay buffer, and cell count performed.
Membranes prepared by polytronning (setting 5, 10 secs). […]
as §1

T1 sequence (P28336 whole entry): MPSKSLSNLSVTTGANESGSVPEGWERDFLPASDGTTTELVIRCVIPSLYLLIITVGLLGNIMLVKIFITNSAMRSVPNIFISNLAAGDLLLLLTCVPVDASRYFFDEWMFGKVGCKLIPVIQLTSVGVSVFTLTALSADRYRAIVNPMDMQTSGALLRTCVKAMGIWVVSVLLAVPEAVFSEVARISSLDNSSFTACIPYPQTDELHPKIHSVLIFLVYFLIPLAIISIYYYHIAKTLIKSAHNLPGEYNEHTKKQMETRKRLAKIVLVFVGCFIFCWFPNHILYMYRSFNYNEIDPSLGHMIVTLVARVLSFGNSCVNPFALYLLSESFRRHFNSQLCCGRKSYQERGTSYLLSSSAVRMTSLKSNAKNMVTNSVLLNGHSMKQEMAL
BB2, sequence (P30550 whole entry): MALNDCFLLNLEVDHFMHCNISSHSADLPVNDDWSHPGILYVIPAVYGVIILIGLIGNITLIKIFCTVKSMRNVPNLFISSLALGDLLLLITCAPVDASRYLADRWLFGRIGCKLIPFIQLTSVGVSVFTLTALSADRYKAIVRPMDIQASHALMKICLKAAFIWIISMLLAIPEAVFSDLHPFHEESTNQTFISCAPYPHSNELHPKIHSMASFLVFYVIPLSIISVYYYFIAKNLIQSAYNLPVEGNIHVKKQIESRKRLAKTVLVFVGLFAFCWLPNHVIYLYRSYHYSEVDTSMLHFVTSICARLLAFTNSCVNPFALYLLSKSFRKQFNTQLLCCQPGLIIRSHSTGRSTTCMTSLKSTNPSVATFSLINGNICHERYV

For the compound `O=C(NCc1cccc(Cl)c1Cl)N(Cc1ccc(O)cc1)CC1(c2ccccn2)CCCCC1` [Example 1, 3-(2,3-Dichloro-benzyl)-1-(4-hydroxy-benzyl)-1-(1-pyridin-2-yl-cyclohexylmethyl)-urea], the Ki in series [1] stood at 3590 nM; in series [2] it was 82 nM.

With `CC(C)c1cccc(C(C)C)c1NC(=O)N(Cc1ccccc1)CC1(c2nnnn2C)CCCCC1` [Example 180, 1-Benzyl-3-(2,6-diisopropyl-phenyl)-1-[1-(1-methyl-1H-tetrazol-5-yl)-cyclohexylmethyl]-urea], the melting point lay in the range of 150 to 152 °C.

`CC(C)c1cccc(C(C)C)c1NC(=O)N(Cc1ccccc1)CC1(c2ncccn2)CCCCC1` [Example 181, 1-Benzyl-3-(2,6-diisopropyl-phenyl)-1-(1-pyrimidin-2-yl-cyclohexylmethyl)-urea] came in with a melting point of 112.5 to 113.5 °C.

In turn, `Cc1cccc(CNC(=O)N(CC2CC2)CC2(c3ccccn3)CCCCC2)c1C` [Example 184, 1-Cyclopropylmethyl-3-(2,3-dimethyl-benzyl)-1-(1-pyridin-2-yl-cyclohexylmethyl)-urea] registered a melting point of 102 to 103 °C.
